According to patent EP4782453A1 (Beyang Therapeutics Co., Ltd., priority 2023, dated 2025):

Each molecule was assayed against T1, Menin-MLL (Homo sapiens, UniProt O00255) (assay: Inhibitory activity against Menin-MLL binding (fluorescence polarization)). Conditions: Menin-MLL IC50, fluorescence polarization; 150 nM His-Menin, 15 nM FITC-MLL; 25°C for 60 min.
T1 construct: His-Menin (M1-L615 end); purchased BIORTUS BP9210
T1 sequence (O00255 1-615 isoform O00255-1): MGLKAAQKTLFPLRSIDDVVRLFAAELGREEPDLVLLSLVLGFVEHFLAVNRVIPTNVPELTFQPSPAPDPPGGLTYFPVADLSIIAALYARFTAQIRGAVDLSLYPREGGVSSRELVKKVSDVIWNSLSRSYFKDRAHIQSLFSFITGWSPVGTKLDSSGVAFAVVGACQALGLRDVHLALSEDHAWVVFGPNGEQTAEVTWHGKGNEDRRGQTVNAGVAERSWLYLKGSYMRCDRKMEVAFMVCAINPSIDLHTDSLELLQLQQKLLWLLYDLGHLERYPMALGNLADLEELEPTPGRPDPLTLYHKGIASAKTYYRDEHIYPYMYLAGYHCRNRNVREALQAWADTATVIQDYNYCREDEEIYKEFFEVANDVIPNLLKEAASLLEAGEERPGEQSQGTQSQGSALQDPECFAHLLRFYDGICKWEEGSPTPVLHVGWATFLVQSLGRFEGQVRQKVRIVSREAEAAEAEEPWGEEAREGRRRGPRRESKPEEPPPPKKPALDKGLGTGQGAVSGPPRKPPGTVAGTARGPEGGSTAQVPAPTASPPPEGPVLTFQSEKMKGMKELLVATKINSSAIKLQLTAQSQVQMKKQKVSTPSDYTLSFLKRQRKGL
Method in brief: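 Fluorescence polarization competition: compound and 150 nM His-tagged menin (residues M1-L615) sit 15 min at 25 °C in pH 7.5 HEPES buffer with NaCl, DTT and BSA; 15 nM FITC-labelled MLL peptide then binds for 60 min. IC50 fitted sigmoidally from mP values, duplicate wells.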

SMILES | IC50
CCS(=O)(=O)N[C@H]1CC[C@H](CN2CC(c3cc(-c4ccc(F)cc4C(=O)N4CCOC[C@H]4C)c4cnc(C)n4c3)C2)CC1 [Example 134, N-[(1r,4r)-4-{[3-(8-{4-fluoro-2-[(3R)-3-methylmorpholin-4-carbonyl]phenyl}-3-methylimidazo[1,5-a]pyridin-6-yl)azacyclobutan-1-yl]methyl}cyclohexyl]ethan-1-sulfonamide] | 17.5 nM
CCN(C(=O)c1cc(F)ccc1-c1cc(C2(F)CN(C(=O)C3NC4CCC3CC4)C2)cn2c(C)ncc12)C(C)C [Example 75, N-ethyl-5-fluoro-2-(6-{3-fluoro-1-[(1R,3S,4S)-2-azabicyclo[2.2.2]octan-3-carbonyl]azacyclobutan-3-yl}-3-methylimidazo[1,5-a]pyridin-8-yl)-N-(isopropyl) benzamide] | 17.5 nM

Same assay, conditions: fluorescence polarization; 150 nM His-Menin, 15 nM FITC-MLL; 25°C for 60 min; read-out: Menin-MLL IC50

SMILES | IC50
COCCN(C)CCCC(C(C)C)N1CC(c2cc(-c3ccc(F)cc3C(=O)N3CCOCC3C)c3cnn(C)c3c2)C1 (stereo not drawn) [Example 185] | 14.5 nM
CCN(C(=O)c1cc(F)ccc1-c1cc(C2CN([C@H](CCCN3C4COCC3C4)C(C)C)C2)cn2c(C)ncc12)C(C)C [Example 423] | 1.7 nM
CCN(C(=O)c1cc(F)ccc1-c1cc(C2CN([C@H](CCCN3CCN(C(C)=O)CC3)C(C)C)C2)cn2c(C)ncc12)C(C)C [Example 311-2, 2-(6-{1-[(3R)-6-(4-acetylpiperazin-1-yl)-2-methylhexan-3-yl]azacyclobutan-3-yl}-3-methylimidazo[1,5-a]pyridin-8-yl)-N-ethyl-5-fluoro-N-(isopropyl)benzamide] | 8.5 nM
Cc1nc(F)c2c(-c3ccc(F)cc3C(=O)N3CCOC[C@H]3C)cc(C3CN([C@H](CCCN4CCC[C@H](O)C4)C(C)C)C3)cn12 [Example 293] | 3.1 nM
CC(=O)N1CCC([C@H](C)N2CC(c3cc(-c4ccc(F)cc4C(=O)N4CCOC[C@H]4C)c4c(F)nc(C)n4c3)C2)CC1 [Example 257-2, 1-{4-[(1S)-1-[3-(1-fluoro-8-{4-fluoro-2-[(3R)-3-methylmorpholin-4-carbonyl]phenyl}-3-methylimidazo[1,5-a]pyridin-6-yl)azacyclobutan-1-yl]ethyl]piperidin-1-yl}ethan-1-one] | 13.8 nM
CCN1CCN(CCC[C@H](C(C)C)N2CC(c3cc(-c4ccc(F)cc4C(=O)N4CCOC[C@H]4C)c4c(F)nc(C)n4c3)C2)CC1 [Example 277] | 3.3 nM
CCNC(=O)N1CCC(CN2CC(c3cc(-c4ccc(F)cc4C(=O)N4CCOC[C@H]4C)c4c(F)nc(C)n4c3)C2)CC1 [Example 261] | 8.5 nM
CCN(C(=O)c1cc(F)ccc1-c1cc(C2CN(C[C@H]3CC[C@H](NS(=O)(=O)CC)CC3)C2)cn2c(C)nc(F)c12)C(C)C [Example 137] | 6.5 nM
COC1CCN(CCC[C@H](C(C)C)N2CC(c3cc(-c4ccc(F)cc4C(=O)N4CCOC[C@H]4C)c4c(F)nc(C)n4c3)C2)CC1 [Example 204, (3R)-4-[5-fluoro-2-(1-fluoro-6-{1-[(3R)-6-(4-methoxypiperidin-1-yl)-2-methylhexan-3-yl]azacyclobutan-3-yl}-3-methylimidazo[1,5-a]pyridin-8-yl)benzoyl]-3-methylmorpholine] | 4.8 nM
Cc1nc(F)c2c(-c3ccc(F)cc3C(=O)N3[C@H](C)COC[C@H]3C)cc(C3CN(CC4CCOCC4)C3)cn12 [Example 208] | 9 nM
Cc1ncc2c(-c3ccc(F)cc3C(=O)N3CCOC[C@H]3C)cc(C3CN([C@H](CCCN4CCN(C)CC4)C(C)C)C3)cn12 [Example 323-2, (3R)-4-[5-fluoro-2-(3-methyl-6-{1-[(3R)-2-methyl-6-(4-methylpiperazin-1-yl)hexan-3-yl]azacyclobutan-3-yl}imidazo[1,5-a]pyridin-8-yl)benzoyl]-3-methylmorpholine] | 2.7 nM
Cc1nc(F)c2c(-c3ccc(F)cc3C(=O)N3CCOC[C@H]3C)cc(C3CN([C@H](CCCN4CCC(F)CC4)C(C)C)C3)cn12 [Example 314] | 2.5 nM
CNC(=O)N1CCC([C@H](C)N2CC(c3cc(-c4ccc(F)cc4C(=O)N4CCOC[C@H]4C)c4c(F)nc(C)n4c3)C2)CC1 [Example 264-2] | 6 nM
Cc1nc(F)c2c(-c3ccc(F)cc3C(=O)N3CCOC[C@H]3C)cc(C3CN([C@H](CCCN4CCN(C5CC5)CC4)C(C)C)C3)cn12 [Example 350] | 3.3 nM
Cc1nc(F)c2c(-c3ccc(F)cc3C(=O)N3CCOC[C@H]3C)cc(C3CN([C@H](CCCN4CCN(C)CC4)C(C)C)C3)cn12 [Example 275, (3R)-4-[5-fluoro-2-(1-fluoro-3-methyl-6-{1-[(3R)-2-methyl-6-(4-methylpiperazin-1-yl)hexan-3-yl]azacyclobutan-3-yl}imidazo[1,5-a]pyridin-8-yl)benzoyl]-3-methylmorpholine] | 3.2 nM
CCN(C(=O)c1cc(F)ccc1-c1cc(C2CN([C@H](CCCN3C[C@H]4C[C@@H]3CO4)C(C)C)C2)cn2c(C)ncc12)C(C)C [Example 379, N-ethyl-5-fluoro-2-(3-methyl-6-{1-[(3R)-2-methyl-6-[(1R,4R)-2-oxa-5-azabicyclo[2.2.1]heptan-5-yl]hexan-3-yl]azacyclobutan-3-yl}imidazo[1,5-a]pyridin-8-yl)-N-(isopropyl)benzamide] | 1.8 nM
CCS(=O)(=O)N[C@H]1CC[C@H](CN2CC(c3cc(-c4ccc(F)cc4C(=O)N(CC(F)F)C(C)C)c4cnc(C)n4c3)C2)CC1 [Example 138] | 6 nM
COCCN(C)CCCC(C(C)C)N1CC(c2cc(-c3ccc(F)cc3C(=O)N(CC(F)F)C(C)C)c3c(F)nc(C)n3c2)C1 (stereo not drawn) [Example 142, N-(2,2-difluoroethyl)-5-fluoro-2-[1-fluoro-6-(1-{6-[(2-methoxyethyl)(methyl)amino]-2-methylhexan-3-yl}azacyclobutan-3-yl)-3-methylimidazo[1,5-a]pyridin-8-yl]-N-(isopropyl)benzamide] | 10 nM
CCN(C(=O)c1cc(F)ccc1-c1cc(C2CN([C@@H](C)C3CCN(C(=O)CO)CC3)C2)cn2c(C)nc(F)c12)C(C)C [Example 284-2] | 2 nM
Cc1nc(F)c2c(-c3ccc(F)cc3C(=O)N3CCOCC3C)cc(C3CN(C(CCCN4CCCC(O)C4)C(C)C)C3)cn12 (stereo not drawn) [Example 292] | 4.5 nM
CC(=O)N1CCN(CCC[C@H](C(C)C)N2CC(c3cc(-c4ccc(F)cc4C(=O)N4CCOC[C@H]4C)c4c(F)nc(C)n4c3)C2)CC1 [Example 265] | 12.8 nM
Cc1nc(F)c2c(-c3ccc(F)cc3C(=O)N3CCOC[C@H]3C)cc(C3CN([C@H](CN4CCN(C)CC4)C(C)C)C3)cn12 [Example 368-2, (3R)-4-[5-fluoro-2-(1-fluoro-3-methyl-6-{1-[(2S)-3-methyl-1-(4-methylpiperazin-1-yl)butan-2-yl]azacyclobutan-3-yl}imidazo[1,5-a]pyridin-8-yl)benzoyl]-3-methylmorpholine] | 4.3 nM
Cc1nc(F)c2c(-c3ccc(F)cc3C(=O)N3CCOC[C@H]3C)cc(C3CN([C@H](CO[C@@H]4CCCN(C)C4)C(C)C)C3)cn12 [Example 297-1, (3R)-4-[5-fluoro-2-(1-fluoro-3-methyl-6-{1-[(2S)-3-methyl-1-{[(3R)-1-methylpiperidin-3-yl]oxy}butan-2-yl]azacyclobutan-3-yl}imidazo[1,5-a]pyridin-8yl)benzoyl]-3-methylmorpholine] | 10.8 nM
Cc1nc(F)c2c(-c3ccc(F)cc3C(=O)N3CCOC[C@H]3C)cc(C3CN([C@H](CCCN4C[C@H]5C[C@@H]4CO5)C(C)C)C3)cn12 [Example 353, (1R,4R)-5-[(4R)-4-[3-(1-fluoro-8-{4-fluoro-2-[(3R)-3-methylmorpholin-4-carbonyl]phenyl}-3-methylimidazo[1,5-a]pyridin-6-yl)azacyclobutan-1-yl]-5-methylhexyl]-2-oxa-5-azabicyclo[2.2.1]heptane] | 2.6 nM
CO[C@@H]1CCCN(CCC[C@H](C(C)C)N2CC(c3cc(-c4ccc(F)cc4C(=O)N4CCOC[C@H]4C)c4c(F)nc(C)n4c3)C2)C1 [Example 305] | 8 nM
CO[C@@H]1CCN(CCC[C@H](C(C)C)N2CC(c3cc(-c4ccc(F)cc4C(=O)N4CCOC[C@H]4C)c4c(F)nc(C)n4c3)C2)C1 [Example 202] | 4.3 nM
COCCN(C)CCC[C@H](C(C)C)N1CC(c2cc(-c3ccc(F)cc3C(=O)N3CCOC[C@H]3C)c3c(F)nc(C)n3c2)C1 [Example 200-1] | 4.3 nM

Same assay, conditions: read-out: Menin-MLL IC50; fluorescence polarization; 150 nM His-Menin, 15 nM FITC-MLL; 25°C for 60 min

SMILES | IC50
CCS(=O)(=O)N[C@H]1CC[C@H](CN2CC(c3cc(-c4ccc(F)cc4C(=O)N4[C@H](C)COC[C@H]4C)c4c(F)nc(C)n4c3)C2)CC1 [Example 197, N-[(1r,4r)-4-{[3-(8-{2-[(3R,5R)-3,5-dimethylmorpholin-4-carbonyl]-4-fluorophenyl}-1-fluoro-3-methylimidazo[1,5-a]pyridin-6-yl)azacyclobutan-1-yl]methyl}cyclohexyl]ethan-1-sulfonamide] | 6.5 nM
